| Structure (SMILES) | melting point |
| --- | --- |
| O=C(Nc1ccccc1)c1ccc([C@H](O)[C@@H](Cc2cccc(OC(F)(F)C(F)F)c2)NC(=O)c2cccc3c2C=CCCC3)cc1 (racemic) [Example 314, N-[(1RS,2SR)-2-[4-(anilinocarbonyl)phenyl]-2-hydroxy-1-[3-(1,1,2,2-tetrafluoroethoxy)benzyl]ethyl]-6,7-dihydro-5H-benzo[a]cycloheptene-1-carboxamide] | 205 to 206 °C |
| CC(C)NC(=O)c1ccc([C@H](O)[C@@H](Cc2cccc(OC(F)(F)C(F)F)c2)NC(=O)c2cccc3c2C=CCCC3)cc1 (racemic) [Example 315, N-[(1RS,2SR)-2-hydroxy-2-[4-[(isopropylamino)carbonyl]phenyl]-1-[3-(1,1,2,2-tetrafluoroethoxy)benzyl]ethyl]-6,7-dihydro-5H-benzo[a]cycloheptene-1-carboxamide] | 215 to 217 °C |
| O=C(NCc1ccccc1)c1ccc([C@H](O)[C@@H](Cc2cccc(OC(F)(F)C(F)F)c2)NC(=O)c2cccc3c2C=CCCC3)cc1 (racemic) [Example 316, N-[(1RS,2SR)-2-[4-[(benzylamino)carbonyl]phenyl]-2-hydroxy-1-[3-(1,1,2,2-tetrafluoroethoxy)benzyl]ethyl]-6,7-dihydro-5H-benzo[a]cycloheptene-1-carboxamide] | 216 to 217 °C |
| CCCCNC(=O)c1ccc([C@H](O)[C@@H](Cc2cccc(OC(F)(F)C(F)F)c2)NC(=O)c2cccc3c2C=CCCC3)cc1 (racemic) [Example 317, N-[(1RS,2SR)-2-[4-[(butylamino)carbonyl]phenyl]-2-hydroxy-1-[3-(1,1,2,2-tetrafluoroethoxy)benzyl]ethyl]-6,7-dihydro-5H-benzo[a]cycloheptene-1-carboxamide] | 207 to 208 °C |
| Cc1ccc(C(=O)N[C@H](Cc2cccc(OC(F)(F)C(F)F)c2)[C@@H](O)c2ccc(F)cc2)c2c1CCCC=C2 (racemic) [Example 318, N-[(1RS,2SR)-2-(4-fluorophenyl)-2-hydroxy-1-[3-(1,1,2,2-tetrafluoroethoxy)benzyl]ethyl]-4-methyl-6,7-dihydro-5H-benzo[a]cycloheptene-1-carboxamide] | 177 to 178 °C |
| CC(C)(C)OC(=O)N[C@H](Cc1cc(OC(F)(F)C(F)F)no1)[C@@H](O)c1ccc(F)cc1 (racemic) [Example 319, tert-butyl N-[(1RS,2SR)-2-(4-fluorophenyl)-2-hydroxy-1-[[3-(1,1,2,2-tetrafluoroethoxy)isooxazol-5-yl]methyl]ethyl]carbamate] | 114 to 115 °C |
| O=C(N[C@H](Cc1cc(OC(F)(F)C(F)F)no1)[C@@H](O)c1ccc(F)cc1)c1cccc2c1C=CCCC2 (racemic) [Example 320, N-[(1RS,2SR)-2-(4-fluorophenyl)-2-hydroxy-1-[[3-(1,1,2,2-tetrafluoroethoxy)isoxazol-5-yl]methyl]ethyl]-6,7-dihydro-5H-benzo[a]cycloheptene-1-carboxamide] | 127 to 128 °C |
| CC(C)(C)OC(=O)Nc1ccc([C@H](O)[C@@H](Cc2cccc(OC(F)(F)C(F)F)c2)NC(=O)c2cccc3c2C=CCCC3)cc1 (racemic) [Example 321, N-[(1RS,2SR)-2-[4-[(tert-butoxycarbonyl)amino]phenyl]-2-hydroxy-1-[3-(1,1,2,2-tetrafluoroethoxy)benzyl]ethyl]-6,7-dihydro-5H-benzo[a]cycloheptene-1-carboxamide] | 153 to 156 °C |
| Nc1ccc([C@H](O)[C@@H](Cc2cccc(OC(F)(F)C(F)F)c2)NC(=O)c2cccc3c2C=CCCC3)cc1 (racemic) [Example 322, N-[(1RS,2SR)-2-(4-aminophenyl)-2-hydroxy-1-[3-(1,1,2,2-tetrafluoroethoxy)benzyl]ethyl]-6,7-dihydro-5H-benzo[a]cycloheptene-1-carboxamide] | 153 to 155 °C |
| CC(C)c1cccc(C[C@@H](NC(=O)c2cccc3c2C=CCCC3)[C@@H](O)c2ccc(F)cc2)c1 (racemic) [Example 323, N-[(1RS,2SR)-2-(4-fluorophenyl)-2-hydroxy-1-(3-isopropylbenzyl)ethyl]-6,7-dihydro-5H-benzo[a]cycloheptene-1-carboxamide] | 165 to 167 °C |
| CC(C)c1cccc(C[C@@H](NC(=O)c2ccc(F)c3ccccc23)[C@@H](O)c2ccc(F)cc2)c1 (racemic) [Example 324, 4-fluoro-N-[(1RS,2SR)-2-(4-fluorophenyl)-2-hydroxy-1-(3-isopropylbenzyl)ethyl]naphthalene-1-carboxamide] | 159 to 160 °C |
| CC(C)(C)OC(=O)N[C@H](Cc1cccc(OC(F)(F)C(F)F)c1)[C@@H](O)c1ccc(C=O)cc1 (racemic) [Example 325, tert-butyl N-[(1RS,2SR)-2-(4-formylphenyl)-2-hydroxy-1-[3-(1,1,2,2-tetrafluoroethoxy)benzyl]ethyl]carbamate] | 140 to 142 °C |
| O=Cc1ccc([C@H](O)[C@@H](Cc2cccc(OC(F)(F)C(F)F)c2)NC(=O)c2cccc3c2C=CCCC3)cc1 (racemic) [Example 326, N-[(1RS,2SR)-2-(4-formylphenyl)-2-hydroxy-1-[3-(1,1,2,2-tetrafluoroethoxy)benzyl]ethyl]-6,7-dihydro-5H-benzo[a]cycloheptene-1-carboxamide] | 164 to 166 °C |
| N#CC(c1ccc([C@H](O)[C@@H](Cc2cccc(OC(F)(F)C(F)F)c2)NC(=O)c2cccc3c2C=CCCC3)cc1)N1CCCCC1 (mixture of isomers) [Example 327, N-[(1RS,2SR)-2-[4-[cyano(piperidino)methyl]phenyl]-2-hydroxy-1-[3-(1,1,2,2-tetrafluoroethoxy)benzyl]ethyl]-6,7-dihydro-5H-benzo[a]cycloheptene-1-carboxamide] | 152 to 154 °C |
| O=C(N[C@H](Cc1cccc(OC(F)(F)C(F)F)c1)[C@@H](O)c1ccc(CO)cc1)c1cccc2c1C=CCCC2 (racemic) [Example 327, N-[(1RS,2SR)-2-hydroxy-2-[4-(hydroxymethyl)phenyl]-1-[3-(1,1,2,2-tetrafluoroethoxy)benzyl]ethyl]-6,7-dihydro-5H-benzo[a]cycloheptene-1-carboxamide] | 151 to 152 °C |
| O=C(N[C@H](Cc1cccc(OC(F)(F)C(F)F)c1)[C@@H](O)c1ccc(CN2CCCCC2)cc1)c1cccc2c1C=CCCC2 (racemic) [Example 327, N-[(1RS,2SR)-2-hydroxy-2-[4-(piperidinomethyl)phenyl]-1-[3-(1,1,2,2-tetrafluoroethoxy)benzyl]ethyl]-6,7-dihydro-5H-benzo[a]cycloheptene-1-carboxamide] | 104 to 106 °C |
| CC(C)(C)OC(=O)N[C@H](Cc1cccc(OC(F)(F)C(F)F)c1)[C@@H](O)c1ccc(Cl)nc1 (racemic) [Example 328, tert-butyl N-[(1RS,2SR)-2-(6-chloropyridin-3-yl)-2-hydroxy-1-[3-(1,1,2,2-tetrafluoroethoxy)benzyl]ethyl]carbamate] | 119 to 121 °C |
| O=C(N[C@H](Cc1cccc(OC(F)(F)C(F)F)c1)[C@@H](O)c1ccc(Cl)nc1)c1cccc2c1C=CCCC2 (racemic) [Example 329, N-[(1RS,2SR)-2-(6-chloropyridin-3-yl)-2-hydroxy-1-[3-(1,1,2,2-tetrafluoroethoxy)benzyl]ethyl]-6,7-dihydro-5H-benzo[a]cycloheptene-1-carboxamide] | 170 to 172 °C |
| O=C(N[C@H](Cc1cccc(OC(F)(F)C(F)F)c1)[C@@H](O)c1ccc(-c2ccccc2)nc1)c1cccc2c1C=CCCC2 (racemic) [Example 330, N-[(1RS,2SR)-2-hydroxy-2-(6-phenylpyridin-3-yl)-1-[3-(1,1,2,2-tetrafluoroethoxy)benzyl]ethyl]-6,7-dihydro-5H-benzo[a]cycloheptene-1-carboxamide] | 174 to 175 °C |
| O=C(N[C@H](Cc1cccc(OC(F)(F)C(F)F)c1)[C@@H](O)c1ccc(Cl)nc1)c1ccc(F)c2ccccc12 (racemic) [Example 331, N-[(1RS,2SR)-2-(6-chloropyridin-3-yl)-2-hydroxy-1-[3-(1,1,2,2-tetrafluoroethoxy)benzyl]ethyl]-4-fluoronaphthalene-1-carboxamide] | 185 to 187 °C |
| O=C(N[C@H](Cc1cccc(OC(F)(F)C(F)F)c1)[C@@H](O)c1ccc(F)cc1)c1cccc2c(Cl)cccc12 (racemic) [Example 333, 5-chloro-N-[(1RS,2SR)-2-(4-fluorophenyl)-2-hydroxy-1-[3-(1,1,2,2-tetrafluoroethoxy)benzyl]ethyl]naphthalene-1-carboxamide] | 174 to 175 °C |
| O=C(N[C@H](Cc1cccc(OC(F)(F)C(F)F)c1)[C@@H](O)c1ccc(F)cc1)c1cccc2c(F)cccc12 (racemic) [Example 334, 5-fluoro-N-[(1RS,2SR)-2-(4-fluorophenyl)-2-hydroxy-1-[3-(1,1,2,2-tetrafluoroethoxy)benzyl]ethyl]naphthalene-1-carboxamide] | 178 to 180 °C |
| O=C(N[C@H](Cc1cccc(C=C(F)C(F)F)c1)[C@@H](O)c1ccc(F)cc1)c1cccc2c1C=CCCC2 (racemic) [Example 335, N-[(1RS,2SR)-2-(4-fluorophenyl)-2-hydroxy-1-[3-(2,3,3-trifluoro-1-propenyl)benzyl]ethyl]-6,7-dihydro-5H-benzo[a]cycloheptene-1-carboxamide] | 165 to 167 °C |
| O=C(N[C@H](Cc1cccc(C=C(F)C(F)F)c1)[C@@H](O)c1ccc(F)cc1)c1ccc(F)c2ccccc12 (racemic) [Example 336, 4-fluoro-N-[(1RS,2SR)-2-(4-fluorophenyl)-2-hydroxy-1-[3-(2,3,3-trifluoro-1-propenyl)benzyl]ethyl]naphthalene-1-carboxamide] | 184 to 185 °C |
| CC(C)(C)OC(=O)N[C@H](Cc1cccc(CC(F)(F)C(F)F)c1)[C@@H](O)c1ccc(F)cc1 (racemic) [Example 337, tert-butyl N-[(1RS,2SR)-2-(4-fluorophenyl)-2-hydroxy-1-[3-(2,2,3,3-tetrafluoropropyl)benzyl]ethyl]carbamate] | 168 to 169 °C |
| O=C(N[C@H](Cc1cccc(CC(F)(F)C(F)F)c1)[C@@H](O)c1ccc(F)cc1)c1cccc2c1C=CCCC2 (racemic) [Example 338, N-[(1RS,2SR)-2-(4-fluorophenyl)-2-hydroxy-1-[3-(2,2,3,3-tetrafluoropropyl)benzyl]ethyl]-6,7-dihydro-5H-benzo[a]cycloheptene-1-carboxamide] | 165 to 166 °C |
